Source: ChEMBL document CHEMBL3885861, “Open TG-GATES”

Species: Rattus norvegicus
Test: Open TG-GATES - Regimen: Daily Repeat
Type: toxicity, organism-based, Sprague-Dawley
Set-up: regimen Daily Repeat, gender Male, age 6 weeks
Details: in vivo, po, 0 mg/kg, route gavage, dose level Control; for APTT / Bas / Eos / Fbg / Hb / Ht / Lym / MCH / MCHC / MCV / Mono / Neu / PT / Plat / RBC / Ret / WBC: tissue Blood; for KIDNEY_L / KIDNEY_R / KIDNEY_TOTAL: tissue Kidney; for LIVER: tissue Liver; for A/G / ALP / ALT / AST / BUN / CRE / Ca / Cl / DBIL / GLC / IP / K / LDH / Na / PL / RALB / TBIL / TC / TG / TP / gamma-GTP: tissue Plasma

Work on `COc1ccc(Cl)cc1C(=O)NCCc1ccc(S(=O)(=O)NC(=O)NC2CCCCC2)cc1` [GLYBURIDE] yielded a TERMINAL_BW (72 h, time 3 day) of 234.5 g, an APTT (72 h, time 3 day) of 19.1 s and a Bas (72 h, time 3 day) of 0%. It also gave an Eos (72 h, time 3 day) of 0.8%, a Fbg (72 h, time 3 day) of 225.4 mg/dL and a Hb (72 h, time 3 day) of 13.3 g/dL. The Ht (72 h, time 3 day) was 39.9%, the Lym (72 h, time 3 day) was 81.6% and the MCH (72 h, time 3 day) was 21.1 pg. It also gave an MCHC (72 h, time 3 day) of 33.2%, an MCV (72 h, time 3 day) of 63.5 fL and a Mono (72 h, time 3 day) of 2.6%. For the same compound, the Neu (72 h, time 3 day) was 14.6%, the PT (72 h, time 3 day) was 12.1 s and the Plat (72 h, time 3 day) was 124.6 x10_4/uL. It also gave an RBC (72 h, time 3 day) of 628.4 x10_4/ul, a Ret (72 h, time 3 day) of 6.8% and a WBC (72 h, time 3 day) of 86.4 x10_2/uL. For the same compound, the KIDNEY_L (72 h, time 3 day) was 1 g, the KIDNEY_R (72 h, time 3 day) was 1 g and the KIDNEY_TOTAL (72 h, time 3 day) was 2 g. The LIVER (72 h, time 3 day) was 11.7 g, the A/G (72 h, time 3 day) was 1.7 and the ALP (72 h, time 3 day) was 939.6 IU/L. It also gave an ALT (72 h, time 3 day) of 43.2 IU/L, an AST (72 h, time 3 day) of 66.4 IU/L and a BUN (72 h, time 3 day) of 15.2 mg/dL. It also gave a CRE (72 h, time 3 day) of 0.4 mg/dL, a Ca (72 h, time 3 day) of 10.9 mg/dL and a Cl (72 h, time 3 day) of 102.4 meq/L. The DBIL (72 h, time 3 day) was 0.1 mg/dL, the GLC (72 h, time 3 day) was 207 mg/dL and the IP (72 h, time 3 day) was 7.4 mg/dL. For the same compound, the K (72 h, time 3 day) was 4.2 meq/L, the LDH (72 h, time 3 day) was 159.2 IU/L and the Na (72 h, time 3 day) was 141 meq/L. It also gave a PL (72 h, time 3 day) of 160.2 mg/dL, an RALB (72 h, time 3 day) of 3.5 g/dL and a TBIL (72 h, time 3 day) of 0.2 mg/dL. For the same compound, the TC (72 h, time 3 day) was 86 mg/dL, the TG (72 h, time 3 day) was 92.6 mg/dL and the TP (72 h, time 3 day) was 5.6 g/dL. It also gave a gamma-GTP (72 h, time 3 day) of 1.4 IU/L, a TERMINAL_BW ([…], time 7 day) of 268.9 g and a TERMINAL_BW ([…], time 14 day) of 320.1 g. It also gave a TERMINAL_BW ([…], time 28 day) of 406.6 g, an APTT ([…], time 7 day) of 18.2 s and a Bas ([…], time 7 day) of 0%. It also gave an Eos ([…], time 7 day) of 0.8%, a Fbg ([…], time 7 day) of 217.8 mg/dL and a Hb ([…], time 7 day) of 13.7 g/dL. For the same compound, the Ht ([…], time 7 day) was 40.6%, the Lym ([…], time 7 day) was 79.8% and the MCH ([…], time 7 day) was 21.2 pg. For the same compound, the MCHC ([…], time 7 day) was 33.7%, the MCV ([…], time 7 day) was 63 fL and the Mono ([…], time 7 day) was 2.8%. The Neu ([…], time 7 day) was 16.2%, the PT ([…], time 7 day) was 12.4 s and the Plat ([…], time 7 day) was 121.3 x10_4/uL. It also gave an RBC ([…], time 7 day) of 644.2 x10_4/ul, a Ret ([…], time 7 day) of 5.5% and a WBC ([…], time 7 day) of 115 x10_2/uL. It also gave an APTT ([…], time 14 day) of 21.1 s, a Bas ([…], time 14 day) of 0% and an Eos ([…], time 14 day) of 0.6%. It also gave a Fbg ([…], time 14 day) of 223.6 mg/dL, a Hb ([…], time 14 day) of 14.1 g/dL and a Ht ([…], time 14 day) of 41%. For the same compound, the Lym ([…], time 14 day) was 79.8%, the MCH ([…], time 14 day) was 20.1 pg and the MCHC ([…], time 14 day) was 34.3%. For the same compound, the MCV ([…], time 14 day) was 58.5 fL, the Mono ([…], time 14 day) was 2.6% and the Neu ([…], time 14 day) was 16.4%. The PT ([…], time 14 day) was 12.2 s, the Plat ([…], time 14 day) was 122.3 x10_4/uL and the RBC ([…], time 14 day) was 701 x10_4/ul. For the same compound, the Ret ([…], time 14 day) was 4.3%, the WBC ([…], time 14 day) was 124.8 x10_2/uL and the APTT ([…], time 28 day) was 19.9 s. It also gave a Bas ([…], time 28 day) of 0%, an Eos ([…], time 28 day) of 1% and a Fbg ([…], time 28 day) of 211 mg/dL. For the same compound, the Hb ([…], time 28 day) was 15.1 g/dL, the Ht ([…], time 28 day) was 43.1% and the Lym ([…], time 28 day) was 83.8%. The MCH ([…], time 28 day) was 20.1 pg, the MCHC ([…], time 28 day) was 35.1% and the MCV ([…], time 28 day) was 57.2 fL. For the same compound, the Mono ([…], time 28 day) was 2%, the Neu ([…], time 28 day) was 12.8% and the PT ([…], time 28 day) was 12.3 s. For the same compound, the Plat ([…], time 28 day) was 100.6 x10_4/uL, the RBC ([…], time 28 day) was 753.2 x10_4/ul and the Ret ([…], time 28 day) was 2.8%. For the same compound, the WBC ([…], time 28 day) was 133.4 x10_2/uL, the KIDNEY_L ([…], time 7 day) was 1.2 g and the KIDNEY_R ([…], time 7 day) was 1.2 g. For the same compound, the KIDNEY_TOTAL ([…], time 7 day) was 2.3 g, the KIDNEY_L ([…], time 14 day) was 1.2 g and the KIDNEY_R ([…], time 14 day) was 1.3 g. The KIDNEY_TOTAL ([…], time 14 day) was 2.5 g, the KIDNEY_L ([…], time 28 day) was 1.3 g and the KIDNEY_R ([…], time 28 day) was 1.4 g. It also gave a KIDNEY_TOTAL ([…], time 28 day) of 2.7 g, an LIVER ([…], time 7 day) of 12.7 g and an LIVER ([…], time 14 day) of 14 g. The LIVER ([…], time 28 day) was 17.3 g, the A/G ([…], time 7 day) was 1.5 and the ALP ([…], time 7 day) was 926.8 IU/L. It also gave an ALT ([…], time 7 day) of 36.6 IU/L, an AST ([…], time 7 day) of 59.8 IU/L and a BUN ([…], time 7 day) of 16.8 mg/dL. For the same compound, the CRE ([…], time 7 day) was 0.4 mg/dL, the Ca ([…], time 7 day) was 10.8 mg/dL and the Cl ([…], time 7 day) was 102.8 meq/L. For the same compound, the DBIL ([…], time 7 day) was 0.1 mg/dL, the GLC ([…], time 7 day) was 217 mg/dL and the IP ([…], time 7 day) was 7.3 mg/dL. It also gave a K ([…], time 7 day) of 3.9 meq/L, an LDH ([…], time 7 day) of 129.6 IU/L and a Na ([…], time 7 day) of 141.6 meq/L. It also gave a PL ([…], time 7 day) of 152 mg/dL, an RALB ([…], time 7 day) of 3.3 g/dL and a TBIL ([…], time 7 day) of 0.2 mg/dL. For the same compound, the TC ([…], time 7 day) was 71.6 mg/dL, the TG ([…], time 7 day) was 128.2 mg/dL and the TP ([…], time 7 day) was 5.5 g/dL. The gamma-GTP ([…], time 7 day) was 1 IU/L, the A/G ([…], time 14 day) was 1.5 and the ALP ([…], time 14 day) was 785.6 IU/L. For the same compound, the ALT ([…], time 14 day) was 36.2 IU/L, the AST ([…], time 14 day) was 62.6 IU/L and the BUN ([…], time 14 day) was 14 mg/dL. For the same compound, the CRE ([…], time 14 day) was 0.5 mg/dL, the Ca ([…], time 14 day) was 10.7 mg/dL and the Cl ([…], time 14 day) was 102.6 meq/L. For the same compound, the DBIL ([…], time 14 day) was 0.1 mg/dL, the GLC ([…], time 14 day) was 199.8 mg/dL and the IP ([…], time 14 day) was 6.6 mg/dL. For the same compound, the K ([…], time 14 day) was 4 meq/L, the LDH ([…], time 14 day) was 154.6 IU/L and the Na ([…], time 14 day) was 140.4 meq/L. The PL ([…], time 14 day) was 155.2 mg/dL, the RALB ([…], time 14 day) was 3.6 g/dL and the TBIL ([…], time 14 day) was 0.2 mg/dL. The TC ([…], time 14 day) was 74.6 mg/dL, the TG ([…], time 14 day) was 104.8 mg/dL and the TP ([…], time 14 day) was 6 g/dL. It also gave a gamma-GTP ([…], time 14 day) of 1.2 IU/L, an A/G ([…], time 28 day) of 1.5 and an ALP ([…], time 28 day) of 561.8 IU/L. For the same compound, the ALT ([…], time 28 day) was 31.4 IU/L, the AST ([…], time 28 day) was 60 IU/L and the BUN ([…], time 28 day) was 16.8 mg/dL. For the same compound, the CRE ([…], time 28 day) was 0.5 mg/dL, the Ca ([…], time 28 day) was 10.5 mg/dL and the Cl ([…], time 28 day) was 103.8 meq/L. It also gave a DBIL ([…], time 28 day) of 0.1 mg/dL, a GLC ([…], time 28 day) of 214 mg/dL and an IP ([…], time 28 day) of 6.6 mg/dL. The K ([…], time 28 day) was 3.9 meq/L, the LDH ([…], time 28 day) was 143.2 IU/L and the Na ([…], time 28 day) was 141.2 meq/L. For the same compound, the PL ([…], time 28 day) was 143.8 mg/dL, the RALB ([…], time 28 day) was 3.5 g/dL and the TBIL ([…], time 28 day) was 0.2 mg/dL. The TC ([…], time 28 day) was 75.4 mg/dL, the TG ([…], time 28 day) was 91.2 mg/dL and the TP ([…], time 28 day) was 5.9 g/dL. For the same compound, the gamma-GTP ([…], time 28 day) was 0.8 IU/L.
